From patent US9738902B2, “Modified PYR/PYL receptors activated by ligands” (priority 2013, dated 2017)

Key:
Assay in all cases: Y2H Pocket Library Screen (HAB1, X-gal)
Type in all cases: cell-based
[1] = target: T1, PYR1 K59R V164F (Arabidopsis thaliana, UniProt O49686, K59R/V164F)
T1 construct: expressed in transfected cells; host or cells: S. cerevisiae Y190
In short: (§1)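 Y190 yeast co-expressing PYR1 mutants and HAB1 were grown two days at 30 °C on Leu/Trp-minus selective plates with 100 μM test compound. Responsiveness was scored by X-gal staining for β-galactosidase after chloroform lysis.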

[2] = target: T2, PYR1 K59R N167A (Arabidopsis thaliana, UniProt O49686, K59R/N167A)
T2 construct: expressed in transfected cells; host or cells: S. cerevisiae Y190 two-hybrid reporter strain
In short: as §1

[3] = target: T3, PYR1 K59R N167C (Arabidopsis thaliana, UniProt O49686, K59R/N167C)
T3 construct: expressed in transfected cells; host or cells: S. cerevisiae Y190 two-hybrid reporter strain
In short: as §1

[4] = target: T4, PYR1 K59R V164S (Arabidopsis thaliana, UniProt O49686, K59R/V164S)
T4 construct: expressed in transfected cells; host or cells: S. cerevisiae Y190 two-hybrid reporter strain
In short: as §1

[5] = target: T5, PYR1 K59R M158G (Arabidopsis thaliana, UniProt O49686, K59R/M158G)
T5 construct: expressed in transfected cells; host or cells: S. cerevisiae Y190 two-hybrid reporter strain
In short: as §1

[6] = target: T6, PYR1 K59R A160C (Arabidopsis thaliana, UniProt O49686, A160C/K59R)
T6 construct: expressed in transfected cells; host or cells: S. cerevisiae Y190
In short: as §1

[7] = target: T7, PYR1 K59R M158A (Arabidopsis thaliana, UniProt O49686, K59R/M158A)
T7 construct: expressed in transfected cells; host or cells: S. cerevisiae Y190 two-hybrid reporter strain
T7 sequence (O49686 whole entry K59R/M158A): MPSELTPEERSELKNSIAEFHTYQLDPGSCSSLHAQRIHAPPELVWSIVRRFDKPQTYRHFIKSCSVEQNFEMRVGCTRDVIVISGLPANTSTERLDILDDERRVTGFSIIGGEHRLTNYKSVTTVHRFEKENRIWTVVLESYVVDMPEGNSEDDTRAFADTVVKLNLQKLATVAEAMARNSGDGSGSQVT
T7 sequence (Q9CAJ0 23-511 partner): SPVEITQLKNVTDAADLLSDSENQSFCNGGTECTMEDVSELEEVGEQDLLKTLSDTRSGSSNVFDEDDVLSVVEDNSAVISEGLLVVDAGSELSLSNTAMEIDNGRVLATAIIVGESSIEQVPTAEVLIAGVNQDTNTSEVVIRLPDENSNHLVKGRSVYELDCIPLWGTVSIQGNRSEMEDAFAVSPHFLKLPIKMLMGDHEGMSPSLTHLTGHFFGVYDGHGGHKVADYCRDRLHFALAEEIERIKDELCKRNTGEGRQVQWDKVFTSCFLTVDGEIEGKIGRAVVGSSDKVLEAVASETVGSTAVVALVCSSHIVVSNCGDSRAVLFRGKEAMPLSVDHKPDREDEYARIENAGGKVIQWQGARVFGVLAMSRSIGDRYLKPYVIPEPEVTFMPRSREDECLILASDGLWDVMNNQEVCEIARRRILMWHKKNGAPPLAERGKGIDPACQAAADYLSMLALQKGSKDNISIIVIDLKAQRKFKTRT
In short: as §1

[8] = target: T8, PYR1 K59R M158L (Arabidopsis thaliana, UniProt O49686, K59R/M158L)
T8 construct: expressed in transfected cells; host or cells: S. cerevisiae Y190 two-hybrid reporter strain
In short: as §1

[9] = target: T9, PYR1 K59R N167S (Arabidopsis thaliana, UniProt O49686, K59R/N167S)
T9 construct: expressed in transfected cells; host or cells: S. cerevisiae Y190 two-hybrid reporter strain
T9 sequence (O49686 whole entry K59R/N167S): as the sequence (O49686 whole entry K59R/M158A) above, with A158M, N167S counted along it
T9 sequence (Q9CAJ0 23-511 partner): as the sequence (Q9CAJ0 23-511 partner) above
In short: as §1

[10] = target: T10, PYR1 K59R V83L (Arabidopsis thaliana, UniProt O49686, K59R/V83L)
T10 construct: expressed in transfected cells; host or cells: S. cerevisiae Y190 yeast two-hybrid reporter strain
In short: as §1

[11] = target: T11, PYR1 K59R T162W (Arabidopsis thaliana, UniProt O49686, K59R/T162W)
T11 construct: expressed in transfected cells; host or cells: S. cerevisiae Y190
In short: as §1

[12] = target: T12, PYR1 K59R E141Q (Arabidopsis thaliana, UniProt O49686, E141Q/K59R)
T12 construct: expressed in transfected cells; host or cells: S. cerevisiae Y190 two-hybrid reporter strain
In short: as §1

[13] = target: T13, PYR1 K59R V164K (Arabidopsis thaliana, UniProt O49686, K59R/V164K)
T13 construct: expressed in transfected cells; host or cells: S. cerevisiae Y190
T13 sequence (O49686 whole entry K59R/V164K): as the sequence (O49686 whole entry K59R/M158A) above, with A158M, V164K counted along it
T13 sequence (Q9CAJ0 23-511, stated change not applied, further chain): as the sequence (Q9CAJ0 23-511 partner) above
In short: as §1

[14] = target: T14, PYR1 K59R T162K (Arabidopsis thaliana, UniProt O49686, K59R/T162K)
T14 construct: expressed in transfected cells; host or cells: S. cerevisiae Y190
T14 sequence (O49686 whole entry K59R/T162K): as the sequence (O49686 whole entry K59R/M158A) above, with A158M, T162K counted along it
T14 sequence (Q9CAJ0 23-511, further chain): as the sequence (Q9CAJ0 23-511 partner) above
In short: as §1

[15] = target: T15, PYR1 K59R M158S (Arabidopsis thaliana, UniProt O49686, K59R/M158S)
T15 construct: expressed in transfected cells; host or cells: S. cerevisiae Y190 two-hybrid reporter strain
In short: as §1

[16] = target: T16, PYR1 K59R E141H (Arabidopsis thaliana, UniProt O49686, E141H/K59R)
T16 construct: expressed in transfected cells; host or cells: S. cerevisiae Y190 two-hybrid reporter strain
In short: as §1

[17] = target: T17, PYR1 K59R N167T (Arabidopsis thaliana, UniProt O49686, K59R/N167T)
T17 construct: expressed in transfected cells; host or cells: S. cerevisiae Y190 two-hybrid reporter strain
T17 sequence (O49686 whole entry K59R/N167T): as the sequence (O49686 whole entry K59R/M158A) above, with A158M, N167T counted along it
T17 sequence (Q9CAJ0 23-511 partner): as the sequence (Q9CAJ0 23-511 partner) above
In short: as §1

[18] = target: T18, PYR1 K59R T162L (Arabidopsis thaliana, UniProt O49686, K59R/T162L)
T18 construct: expressed in transfected cells; host or cells: S. cerevisiae Y190
In short: as §1

[19] = target: T19, PYR1 K59R A160S (Arabidopsis thaliana, UniProt O49686, A160S/K59R)
T19 construct: expressed in transfected cells; host or cells: S. cerevisiae Y190
T19 sequence (O49686 whole entry K59R/A160S): as the sequence (O49686 whole entry K59R/M158A) above, with A158M, A160S counted along it
T19 sequence (Q9CAJ0 23-511 partner): as the sequence (Q9CAJ0 23-511 partner) above
In short: as §1

[20] = target: T20, PYR1 K59R H115N (Arabidopsis thaliana, UniProt O49686, H115N/K59R)
T20 construct: expressed in transfected cells; host or cells: S. cerevisiae Y190 two-hybrid reporter strain
In short: as §1

[21] = target: T21, PYR1 K59R M158T (Arabidopsis thaliana, UniProt O49686, K59R/M158T)
T21 construct: expressed in transfected cells; host or cells: S. cerevisiae Y190 two-hybrid reporter strain
In short: as §1

[22] = target: T22, PYR1 K59R V164E (Arabidopsis thaliana, UniProt O49686, K59R/V164E)
T22 construct: expressed in transfected cells; host or cells: S. cerevisiae Y190
In short: as §1

[23] = target: T23, PYR1 K59R S122G (Arabidopsis thaliana, UniProt O49686, K59R/S122G)
T23 construct: expressed in transfected cells; host or cells: S. cerevisiae Y190 two-hybrid reporter strain
T23 sequence (O49686 whole entry K59R/S122G): as the sequence (O49686 whole entry K59R/M158A) above, with S122G, A158M counted along it
T23 sequence (Q9CAJ0 23-511 partner): as the sequence (Q9CAJ0 23-511 partner) above
In short: as §1

[24] = target: T24, PYR1 K59R A89W (Arabidopsis thaliana, UniProt O49686, A89W/K59R)
T24 construct: expressed in transfected cells; host or cells: S. cerevisiae Y190 yeast two-hybrid reporter strain
In short: as §1

[25] = target: T25, PYR1 K59R F159T (Arabidopsis thaliana, UniProt O49686, F159T/K59R)
T25 construct: expressed in transfected cells; host or cells: S. cerevisiae Y190
In short: as §1

[26] = target: T26, PYR1 K59R F108Q (Arabidopsis thaliana, UniProt O49686, F108Q/K59R)
T26 construct: expressed in transfected cells; host or cells: S. cerevisiae Y190 yeast two-hybrid reporter strain
In short: as §1

[27] = target: T27, PYR1 K59R F108L (Arabidopsis thaliana, UniProt O49686, F108L/K59R)
T27 construct: expressed in transfected cells; host or cells: S. cerevisiae Y190 yeast two-hybrid reporter strain
In short: as §1

[28] = target: T28, PYR1 K59R F108V (Arabidopsis thaliana, UniProt O49686, F108V/K59R)
T28 construct: expressed in transfected cells; host or cells: S. cerevisiae Y190 yeast two-hybrid reporter strain
In short: as §1

Measured: Threshold

N#Cc1c(Cl)cccc1Cl [Dichlobenil, dichlobenil]
not listed: [23] | [24] | [25] | [26] | [27] | [28]
100 µM: all other assays above

C#CCOc1ccc(CCNC(=O)C(OCC#C)c2ccc(Cl)cc2)cc1OC (stereo not shown) [Mandipropamid, mandipropamid]
100 µM: [23] | [24] | [25] | [26] | [27] | [28]
